These results are taken from the RepoRT retention time repository (doi:10.1016/j.foodchem.2021.129757).

One data set can be described thus: RP, Agilent ZORBAX RRHD Eclipse Plus C18, 50 × 2.1 mm, 1.8 µm, 30 °C, 0.4 mL/min, estimated dead time 0.28 min; A: water + 0.1% formic acid, pH 3; B: acetonitrile + 0.1% formic acid, pH 3; gradient (min/%B) 0/1 5/10 8/25 9.1/99 10/99 12/99. The following applies: stereoisomer not certain.
For `O=C(O)c1cc(O)c(O)c(O)c1` [Gallic acid], the LC retention time is 0.713 min.

A short description of another data set: RP, Phenomenex Luna Omega Polar C18, 100 × 2.1 mm, 1.6 µm, 40 °C, 0.5 mL/min, estimated dead time 0.44 min; A: water + 0.1% formic acid + 10 mM ammonium formate; B: acetonitrile; gradient (min/%B) 0/5 8/20 10/100 12/100 12.1/5 14/5. The following applies: stereoisomer not certain.
Regarding `O=S(=O)(O)Oc1c(O)cccc1O` [Pyrogallol 2-O-sulfate], the LC retention time is 1.61 min.
On the same count and under the same terms, in the case of `O=C(O)c1cc(O)c(O)c(O)c1` [Gallic acid] it was 1.22 min; in that of `COc1ccc(C(=O)O)cc1OC` [Veratric acid], 6.87 min.
In the case of `O=c1ccc2c(O)c3ccoc3cc2o1` [Bergaptol], the LC retention time is 9.43 min.
Same read-out and setting: in the case of `O=c1oc2cc(O)ccc2c2ccccc12` [Urolithin B] it was 9.78 min.
On the same count and under the same terms, with `Oc1cc(O)c2c(c1)OC1(c3ccc(O)c(O)c3)Oc3cc(O)c4c(c3C2C1O)OC(c1ccc(O)c(O)c1)C(O)C4` (stereo not drawn) [Procyanidin A2] the figure was 8.12 min.

A short description of another data set: RP, Waters ACQUITY UPLC BEH C18, 100 × 2.1 mm, 1.7 µm, 65 °C, 0.4 mL/min, estimated dead time 0.55 min; A: water + 0.1% formic acid, pH 3; B: 80% acetonitrile + 20% acetone + 0.1% formic acid, pH 3; gradient (min/%B) 0/0 5/100 5.5/0 6/0. Particulars: stereoisomer not certain.
For `O=C(O)c1cc(O)c(O)c(O)c1` [Gallic acid], the LC retention time is 1.5 min.
Still for that read-out and setting: with `Cn1cnc2c1c(=O)[nH]c(=O)n2C` [Theobromine] the figure was 1.39 min; with `CC12CCc3occc3C1CCC13CC(CCC12)C(O)(CO)C3` (stereo not drawn) [Cafestol], 3.19 min.

The next data set can be described thus: Other, Phenomenex Kinetex PFP, 100 × 4.6 mm, 5 µm, 45 °C, 0.6 mL/min, estimated dead time 1.8 min; A: water + 0.1% trifluoroacetic acid, pH 2; B: methanol; gradient (min/%B) 0/40 20/72 21/40. Particulars: stereoisomer not certain.
Regarding `O=C(O)c1cc(O)c(O)c(O)c1` [Gallic acid], the LC retention time is 3 min.

The next data set in a line: RP, Agilent ZORBAX RRHD Eclipse Plus C18, 50 × 2.1 mm, 1.8 µm, 30 °C, 0.4 mL/min, estimated dead time 0.28 min; A: water + 0.1% formic acid, pH 3; B: acetonitrile + 0.1% formic acid, pH 3; gradient (min/%B) 0/1 5/10 8/25 9.1/99 10/99 12/1. The following applies: stereoisomer not certain.
As to `O=S(=O)(O)Oc1c(O)cccc1O` [Pyrogallol 2-O-sulfate], the LC retention time is 2.36 min.
Same read-out and setting: in the case of `O=C(O)c1cc(O)c(O)c(O)c1` [Gallic acid] it was 1.64 min; in that of `Oc1cc(O)c2c(c1)OC1(c3ccc(O)c(O)c3)Oc3cc(O)c4c(c3C2C1O)OC(c1ccc(O)c(O)c1)C(O)C4` (stereo not drawn) [Procyanidin A2], 8.05 min.

A short description of a further data set: RP, Waters ACQUITY UPLC BEH Shield RP18, 100 × 2.1 mm, 1.7 µm, 30 °C, 0.6 mL/min, estimated dead time 0.37 min; A: water + 0.1% formic acid, pH 3; B: acetonitrile + 0.1% formic acid, pH 3; gradient (min/%B) 0/0 2/0 7/10 22/95 22.1/0 26/0. The following applies: stereoisomer not certain.
Take `O=C(O)c1cc(O)c(O)c(O)c1` [Gallic acid]: the LC retention time was 2.69 min.
On the same count and under the same terms, in the case of `COc1ccc(C(=O)O)cc1OC` [Veratric acid] it was 12 min; in that of `O=c1ccc2c(O)c3ccoc3cc2o1` [Bergaptol], 14.7 min; in that of `C[n+]1cccc(C(=O)[O-])c1` [Trigonelline], 0.62 min.
Still for that read-out and setting: in the case of `O=c1oc2cc(O)ccc2c2ccccc12` [Urolithin B] it was 16 min; in that of `Cn1cnc2c1c(=O)[nH]c(=O)n2C` [Theobromine], 4.4 min.
Same read-out and setting: with `Oc1cc(O)c2c(c1)OC1(c3ccc(O)c(O)c3)Oc3cc(O)c4c(c3C2C1O)OC(c1ccc(O)c(O)c1)C(O)C4` (stereo not drawn) [Procyanidin A2] the figure was 13.1 min.
With `CC12CCc3occc3C1CCC13CC(CCC12)C(O)(CO)C3` (stereo not drawn) [Cafestol], the LC retention time was 17.5 min.

A short description of a further data set: RP, 50 × 0.5 mm, 2.7 µm, 35 °C, 0.01 mL/min, estimated dead time 0.62 min; A: water + 0.1% formic acid, pH 3; B: acetonitrile + 0.1% formic acid, pH 3; gradient (min/%B) 0/5 12/95 14/95 16/5. The following applies: stereoisomer not certain.
As for `O=S(=O)(O)Oc1c(O)cccc1O` [Pyrogallol 2-O-sulfate], the LC retention time was 1.4 min.
The same measure, in the same setting: with `O=C(O)c1cc(O)c(O)c(O)c1` [Gallic acid] the figure was 1.44 min; with `COc1ccc(C(=O)O)cc1OC` [Veratric acid], 4.19 min.
Still for that read-out and setting: with `O=c1ccc2c(O)c3ccoc3cc2o1` [Bergaptol] the figure was 5.42 min; with `C[n+]1cccc(C(=O)[O-])c1` [Trigonelline], 0.771 min.
Same read-out and setting: with `O=c1oc2cc(O)ccc2c2ccccc12` [Urolithin B] the figure was 6.54 min; with `Cn1cnc2c1c(=O)[nH]c(=O)n2C` [Theobromine], 1.77 min.
For the compound `Oc1cc(O)c2c(c1)OC1(c3ccc(O)c(O)c3)Oc3cc(O)c4c(c3C2C1O)OC(c1ccc(O)c(O)c1)C(O)C4` (stereo not drawn) [Procyanidin A2], the LC retention time was 4.38 min.
On the same count and under the same terms, in the case of `CC12CCc3occc3C1CCC13CC(CCC12)C(O)(CO)C3` (stereo not drawn) [Cafestol] it was 8.2 min.

The nature of another data set: RP, Agilent ZORBAX Eclipse XDB-C18, 100 × 2.1 mm, 1.8 µm, 50 °C, 0.4 mL/min, estimated dead time 0.55 min; A: water + 0.1% formic acid, pH 3; B: methanol + 0.1% formic acid, pH 3; gradient (min/%B) 0/2 10/100 14.5/100 14.51/2 16.5/2. The following applies: stereoisomer not certain.
As to `O=S(=O)(O)Oc1c(O)cccc1O` [Pyrogallol 2-O-sulfate], the LC retention time is 1.76 min.
Consider `O=C(O)c1cc(O)c(O)c(O)c1` [Gallic acid], for which the LC retention time is 1.47 min.
Regarding `COc1ccc(C(=O)O)cc1OC` [Veratric acid], the LC retention time was 4.84 min.
Same read-out and setting: in the case of `O=c1ccc2c(O)c3ccoc3cc2o1` [Bergaptol] it was 6.04 min; in that of `O=c1oc2cc(O)ccc2c2ccccc12` [Urolithin B], 7.19 min.
Same read-out and setting: with `Cn1cnc2c1c(=O)[nH]c(=O)n2C` [Theobromine] the figure was 2.49 min; with `Oc1cc(O)c2c(c1)OC1(c3ccc(O)c(O)c3)Oc3cc(O)c4c(c3C2C1O)OC(c1ccc(O)c(O)c1)C(O)C4` (stereo not drawn) [Procyanidin A2], 4.3 min; with `CC12CCc3occc3C1CCC13CC(CCC12)C(O)(CO)C3` (stereo not drawn) [Cafestol], 9.33 min.

A further data set can be described thus: RP, Waters ACQUITY UPLC HSS T3, 100 × 2.1 mm, 50 °C; A: water + 0.1% formic acid, pH 3; B: 30% methanol + 70% acetonitrile + 0.1% formic acid, pH 3; gradient (min/%B) 0/5 1/8 2/15 3/40 4/70 4.5/100 5/100 6.4/100 6.6/5 6.8/5 7/5. The following applies: stereoisomer not certain.
Consider `Cn1cnc2c1c(=O)[nH]c(=O)n2C` [Theobromine], for which the LC retention time turned out to be 2.12 min.

The next data set is described as follows: RP, Phenomenex Luna Omega Polar C18, 100 × 2.1 mm, 1.6 µm, 40 °C, 0.5 mL/min, estimated dead time 0.44 min; A: water + 0.5% formic acid; B: acetonitrile + 0.5% formic acid; gradient (min/%B) 0/5 3/50 3.1/100 5/100 5.1/5 7/5. Particulars: stereoisomer not certain.
In the case of `O=S(=O)(O)Oc1c(O)cccc1O` [Pyrogallol 2-O-sulfate], the LC retention time is 1.49 min.
On the same count and under the same terms, in the case of `O=C(O)c1cc(O)c(O)c(O)c1` [Gallic acid] it was 1.15 min; in that of `O=c1ccc2c(O)c3ccoc3cc2o1` [Bergaptol], 3.25 min.
Regarding `C[n+]1cccc(C(=O)[O-])c1` [Trigonelline], the LC retention time is 0.58 min.
Same read-out and setting: in the case of `O=c1oc2cc(O)ccc2c2ccccc12` [Urolithin B] it was 3.72 min.
On the same count and under the same terms, in the case of `Cn1cnc2c1c(=O)[nH]c(=O)n2C` [Theobromine] it was 1.45 min; in that of `Oc1cc(O)c2c(c1)OC1(c3ccc(O)c(O)c3)Oc3cc(O)c4c(c3C2C1O)OC(c1ccc(O)c(O)c1)C(O)C4` (stereo not drawn) [Procyanidin A2], 2.41 min; in that of `CC12CCc3occc3C1CCC13CC(CCC12)C(O)(CO)C3` (stereo not drawn) [Cafestol], 2.42 min.
